Results on six compounds are retold here after patent US20250073255A1, “USE OF FA-TYPE LIPID COMPOUNDS IN PREPARATION OF NUCLEIC ACID DELIVERY REAGENT AND RELATED PRODUCT” (BEIJING BAISHIKANG PHARMACEUTICAL TECHNOLOGY (BSJPHARMA) …, priority 2021, published 2025).

The structures appear in SMILES notation.

The assay relates to C57BL/6 male mice. The assay can be described thus: In vivo delivery study of lipid nucleic acid mixture (oral gavage, RT-qPCR of PGY-sRNA-26 in tissues). The note with it: for overall delivery efficacy: delivering nucleic acids into each tissue and blood tested: 100 μg lipid:10 nmol PGY-sRNA-26, all tissues and blood tested; for oral delivery of single-stranded sRNA nucleic acids into mouse blood / oral delivery of single-stranded sRNA nucleic acids into mouse brain tissue / oral delivery of single-stranded sRNA nucleic acids into mouse femur / oral delivery of single-stranded sRNA nucleic acids into mouse heart tissue / oral delivery of single-stranded sRNA nucleic acids into mouse intestinal tissue / oral delivery of single-stranded sRNA nucleic acids into mouse kidney tissue / oral delivery of single-stranded sRNA nucleic acids into mouse liver tissue / oral delivery of single-stranded sRNA nucleic acids into mouse lung tissue / oral delivery of single-stranded sRNA nucleic acids into mouse pancreatic tissue / oral delivery of single-stranded sRNA nucleic acids into mouse spleen tissue / oral delivery of single-stranded sRNA nucleic acids into mouse stomach tissue: 100 μg lipid:10 nmol PGY-sRNA-26, sampled after 12 hours; for oral delivery of single-stranded sRNA nucleic acids into mouse heart tissue: vs free uptake group; for oral delivery of single-stranded sRNA nucleic acids into mouse intestinal tissue: intestine; for oral delivery of single-stranded sRNA nucleic acids into mouse pancreatic tissue: pancreas. Also noted: species or system mouse. How it is done:
10 nmol of small RNA (as shown in Table 2) was dissolved in 400 μl of DEPC-treated water in a glass tube, 10 μl of the corresponding lipid stock solution was added such that the lipid mass in the system was 100 μg. The mixture was mixed thoroughly, heated in a 90° C. water bath for 15 minutes, and then cooled naturally to obtain the lipid nucleic acid mixture of lipid and small RNA.
C57BL/6 male mice, approximately 6 weeks old, weighing […], were obtained from Beijing Vital River Laboratory Animal Technology Co., Ltd. The mice were housed in the SPF-grade animal facility at the Animal Center of the Institute of Basic Medical Sciences, Chinese Academy of Medical Sciences. The mice were fasted for 12 hours before gavage administration.
The lipid nucleic acid mixture was prepared following the method described in Example 2. The resultant lipid nucleic acid mixture was orally administered to each mouse at a dose of 100 μg lipid:10 nmol single-stranded 3-methylated small RNA PGY-sRNA-26.
• 1) Blank group (n=4): mice were administered with 500 μl saline by gavage, this group served as a blank control; • 2) Free uptake group (n=4): mice were directly administered with small RNA PGY-sRNA-26 solution (10 nmol/mouse, 500 l) by gavage, this group served as a negative control; • 3) Lipid-treated group (n=4): mice were administered with 500 μl lipid nucleic acid mixture prepared in step 2 by gavage.
After 12 hours of gavage administration, 500 μl blood from the eyeball of each mouse was sampled, added to 1.5 ml Trizol Reagent LS (purchased from Invitrogen), thoroughly mixed for lysis. 3 ml of Trizol Reagent LSwas added to tissue samples and homogenized for complete lysis, wherein the sampled tissues include heart, liver, spleen, lung, kidney, stomach, intestine, brain, blood, femur, pancreas. RNAwas extracted from 1 ml of the blood or the tissue lysate following the steps below: • Centrifuge at 4° C., 12,000 rpm for 5 min, discard the precipitate, transfer Trizol to a new centrifuge tube; • Add chloroform at 200 μL chloroform/mL Trizol, shake well, stand at room temperature for 5 min; • Centrifuge at 4° C., 12,000 rpm for 15 min; • Take the upper aqueous phase to another centrifuge tube, add isopropanol at 0.4 mL isopropanol/mL Trizol, mix well, and stand at low temperature for 10-20 min; • Centrifuge at 4° C., 12,000 rpm for 15 min, discard the supernatant, RNA precipitated at the bottom of the tube; • Add 1 mL of 75% ethanol, gently shake the centrifuge tube, suspend the precipitate; • Centrifuge at 4° C., 12,000 rpm for 15 min, discard the supernatant, add 1 mL of 75% ethanol, gently shake the centrifuge tube, suspend the precipitate; • Centrifuge at 4° C., 12,000 rpm for 15 min, discard the supernatant, air-dry at room temperature, dissolve RNA samples in 50 μL RNase-free H2O, measure OD value to quantify RNA concentration. 3.3 Reverse Transcription of sRNA to cDNA:
sRNA was reverse transcribed to cDNA using the High-Capacity cDNA Reverse Transcription Kit (Applied Biosystems, cat. no. 4368813) by stem-loop method (see, e.g., “Real-time quantification of microRNAs by stem-loop RT-PCR, Nucleic Acids Res. 2005 Nov. 27; 33(20):e179”, incorporated herein by reference). The reverse transcription system is as follows: Template RNA (200 ng/μL) 10 μL, 10×RT Buffer 2.0 μL, 25×dNTP Mix (100 mM) 0.8 μL, U6 RT stem-loop primer (10 μM) 2.0 μL, PGY-sRNA-26 RT stem-loop primer (10 μM) 2.0 μL, MultiScribe™ Reverse Transcriptase (50 U/μL) 1.0 μL, RNAse Inhibitor (40 U/μL) 1.0 μL, nuclease-free H2O 1.2 μL. After transient centrifugation, the reverse transcription system was placed in a PCR machine with the following reaction conditions: (1) 25° C., 10 min; (2) 37° C., 120 min; (3) 85° C., 5 min; (4) 4° C., stop reaction. After the reaction, add 20 μL RNAse-free ddH2O, adjust the final volume to 40 μL. […]
(In general: In qPCR the cycle at which signal appears reflects the starting amount.)

For the compound `CCCCCCCCCC(=O)OC/C=C(\C)CC/C=C(\C)CCC=C(C)C` [Lipid 803, [(2E,6E)-3,7,11-trimethyldodeca-2,6,10-trienyl]decanoate], the “overall delivery efficacy: delivering nucleic acids into each tissue and blood tested” value is recorded as “best delivery efficacy”; the “oral delivery of single-stranded sRNA nucleic acids into mouse blood” value is “can effectively orally deliver”; the “oral delivery of single-stranded sRNA nucleic acids into mouse brain tissue” value is “can effectively orally deliver”; the “oral delivery of single-stranded sRNA nucleic acids into mouse femur” value was “can effectively orally deliver”. Also, the “oral delivery of single-stranded sRNA nucleic acids into mouse heart tissue” value is on record as “can effectively orally deliver”, the “oral delivery of single-stranded sRNA nucleic acids into mouse intestinal tissue” value is reported as “can effectively orally deliver”, the “oral delivery of single-stranded sRNA nucleic acids into mouse kidney tissue” value was “can effectively orally deliver” and the “oral delivery of single-stranded sRNA nucleic acids into mouse liver tissue” value is recorded as “can effectively orally deliver”. Besides, the “oral delivery of single-stranded sRNA nucleic acids into mouse lung tissue” value was “can effectively orally deliver”, the “oral delivery of single-stranded sRNA nucleic acids into mouse pancreatic tissue” value is “can effectively orally deliver”, the “oral delivery of single-stranded sRNA nucleic acids into mouse spleen tissue” value is “can effectively orally deliver” and the “oral delivery of single-stranded sRNA nucleic acids into mouse stomach tissue” value was “can effectively orally deliver”.

Consider `CCCCC/C=C\C/C=C\C/C=C\C/C=C\C/C=C\CCC(=O)O` [Lipid 542, (4Z,7Z,10Z,13Z,16Z)-docosa-4,7,10,13,16-pentaenoic acid], for which the “overall delivery efficacy: delivering nucleic acids into each tissue and blood tested” value is on record as “best delivery efficacy”; the “oral delivery of single-stranded sRNA nucleic acids into mouse blood” value was “can effectively orally deliver”; the “oral delivery of single-stranded sRNA nucleic acids into mouse brain tissue” value was “can effectively orally deliver”; the “oral delivery of single-stranded sRNA nucleic acids into mouse femur” value was “can effectively orally deliver”. For the same compound, the “oral delivery of single-stranded sRNA nucleic acids into mouse heart tissue” value is recorded as “can effectively orally deliver”, the “oral delivery of single-stranded sRNA nucleic acids into mouse intestinal tissue” value is listed as “can effectively orally deliver”, the “oral delivery of single-stranded sRNA nucleic acids into mouse kidney tissue” value is “can effectively orally deliver” and the “oral delivery of single-stranded sRNA nucleic acids into mouse liver tissue” value is listed as “can effectively orally deliver”. Also, the “oral delivery of single-stranded sRNA nucleic acids into mouse lung tissue” value is reported as “can effectively orally deliver”, the “oral delivery of single-stranded sRNA nucleic acids into mouse spleen tissue” value is recorded as “can effectively orally deliver” and the “oral delivery of single-stranded sRNA nucleic acids into mouse stomach tissue” value is on record as “can effectively orally deliver”.

Regarding `CC(=O)CCC=C(C)CCC=C(C)C` [Lipid 502, 6,10-dimethylundeca-5,9-dien-2-one], the “oral delivery of single-stranded sRNA nucleic acids into mouse blood” value is listed as “can effectively orally deliver”, the “oral delivery of single-stranded sRNA nucleic acids into mouse brain tissue” value is recorded as “can effectively orally deliver”, the “oral delivery of single-stranded sRNA nucleic acids into mouse heart tissue” value is on record as “can effectively orally deliver” and the “oral delivery of single-stranded sRNA nucleic acids into mouse intestinal tissue” value is reported as “can effectively orally deliver”. In addition, the “oral delivery of single-stranded sRNA nucleic acids into mouse kidney tissue” value is “can effectively orally deliver”, the “oral delivery of single-stranded sRNA nucleic acids into mouse spleen tissue” value was “can effectively orally deliver” and the “oral delivery of single-stranded sRNA nucleic acids into mouse stomach tissue” value is “can effectively orally deliver”.

Turning to `CCCCCCCCCOC(C)=O` [Lipid 617, nonyl acetate], the “oral delivery of single-stranded sRNA nucleic acids into mouse blood” value is “can effectively orally deliver”, the “oral delivery of single-stranded sRNA nucleic acids into mouse brain tissue” value was “can effectively orally deliver”, the “oral delivery of single-stranded sRNA nucleic acids into mouse femur” value was “can effectively orally deliver” and the “oral delivery of single-stranded sRNA nucleic acids into mouse intestinal tissue” value is listed as “can effectively orally deliver”. Also, the “oral delivery of single-stranded sRNA nucleic acids into mouse kidney tissue” value is listed as “can effectively orally deliver”, the “oral delivery of single-stranded sRNA nucleic acids into mouse liver tissue” value is listed as “can effectively orally deliver”, the “oral delivery of single-stranded sRNA nucleic acids into mouse lung tissue” value is “can effectively orally deliver” and the “oral delivery of single-stranded sRNA nucleic acids into mouse spleen tissue” value is “can effectively orally deliver”. In addition, the “oral delivery of single-stranded sRNA nucleic acids into mouse stomach tissue” value is “can effectively orally deliver”.

Regarding `CC(CC(=O)O)C(=O)O` (stereo not shown) [Lipid 608, 2-methylbutanedioic acid], the “oral delivery of single-stranded sRNA nucleic acids into mouse femur” value was “can effectively orally deliver”, the “oral delivery of single-stranded sRNA nucleic acids into mouse heart tissue” value is “can effectively orally deliver”, the “oral delivery of single-stranded sRNA nucleic acids into mouse lung tissue” value is “can effectively orally deliver” and the “oral delivery of single-stranded sRNA nucleic acids into mouse spleen tissue” value is given as “can effectively orally deliver”. For the same compound, the “oral delivery of single-stranded sRNA nucleic acids into mouse stomach tissue” value is given as “can effectively orally deliver”.

Turning to `CCCCCC/C=C\CCCCCCCC(=O)OCCCCCCCCCCCCCCCCCCCCCCC` [Lipid 825, tricosyl (Z)-hexadec-9-enoate], the “oral delivery of single-stranded sRNA nucleic acids into mouse blood” value is reported as “can effectively orally deliver”, the “oral delivery of single-stranded sRNA nucleic acids into mouse brain tissue” value is given as “can effectively orally deliver”, the “oral delivery of single-stranded sRNA nucleic acids into mouse femur” value is “can effectively orally deliver” and the “oral delivery of single-stranded sRNA nucleic acids into mouse heart tissue” value is recorded as “can effectively orally deliver”. Further, the “oral delivery of single-stranded sRNA nucleic acids into mouse intestinal tissue” value is “can effectively orally deliver”, the “oral delivery of single-stranded sRNA nucleic acids into mouse kidney tissue” value is “can effectively orally deliver”, the “oral delivery of single-stranded sRNA nucleic acids into mouse liver tissue” value is “can effectively orally deliver” and the “oral delivery of single-stranded sRNA nucleic acids into mouse lung tissue” value was “can effectively orally deliver”. Further, the “oral delivery of single-stranded sRNA nucleic acids into mouse pancreatic tissue” value is “can effectively orally deliver”, the “oral delivery of single-stranded sRNA nucleic acids into mouse spleen tissue” value was “can effectively orally deliver” and the “oral delivery of single-stranded sRNA nucleic acids into mouse stomach tissue” value was “can effectively orally deliver”.
